Test results as given in patent publication US20090247495A1, “CU[…] AND USES THEREOF” (priority 2007, published 2009).
Entries after “also recorded” stand apart in the source; their conditions may differ.

Columns and labels:
[1] = system: Human leukemia cell lines CCRF-CEM, K562, MOLT-4, RPMI-8226 and SR; assay: Cell proliferation assay using SRB, 5 human leukemia cell lines; format: cell-based; conditions: 48 hours treatment, range over all leukemia cell lines
Procedure: Human leukemia cell lines CCRF-CEM, K562, MOLT-4, RPMI-8226 and SR, purchased from the National Cancer Institute (NCI), were cultured in RPMI 1640 medium supplemented with 5%(v/v) fetal Bovine […] and 100 units/ml penicillin and 100 units/ml streptomycin in a humidified 5% CO2 atmosphere at 37° C. • 6.1.2 Reagents and Antibodies
All 5 human leukemia cells were screened by the cell proliferation assay using SRB to quantitative cell protein mass following cucurbitacin B treatment. The experiments were repeated in triplicate. Appropriate number of cells (depends on the doubling time of cells) were seeded into a 96-well tissue culture plate and growth in the indicated medium in presence of different dosages of cucurbitacin B for 2 days. Afterwards 25 μl 80%TCA reagent was added into each well to fix the cells and the plates were incubated at 4° C. at least for 1 hour. Then the plates were washed with tap water and air dried. […] The plates were air dried and dissolved by 100 μl 1 OmMTrizma-base solution and the absorbance was measured at 515 nm using FLUOstar OPTIMA equipment. • 6.1.4 Flow Cytometry for Apoptosis Analysis
Appropriate number of cell density were seeded into a 96 well culture plate and treated with different doses of cucurbitacin B for 2 days. The growth inhibition effects of cucurbitacin B on the cells were detected using SRB.

Erk1/2 = assay: Western blot of Erk1/2 in HepG2, HT29 and MCF-7 cells; format: cell-based, human
Procedure: The human cancer cells line were serum starved for 18 hours prior to CuB/CuD treatment. Cells were incubated in a 6-well plate filled with 5 ml growth medium (RPMI with 0.2% FBS and 1% PS) at the cell density of 1×10^5 cells/ml, in the presence or absence of two different dosages of CuB/CuD for various time intervals. The drug treatment was terminated by centrifugation at 1,500 rpm for 5 minutes and the cells were rinsed twice with phosphate-buffered saline and lysed at 4° C. in a lysis buffer containing 50 mM Tris-HCl, pH7.5, 100 mM NaCl, 5 mM EDTA, 40 mM NaP2O7, 1% Triton X-100, 1 mM dithiothreitol, 200 μM Na3VO4, 100 uM phenylmethysufonyl fluoride, 2 μg/ml leupeptin, 4 μg/ml aprotinin and 0.7 μg/ml pepstatin. The insoluble protein lysate were removed by centrifugation for 10 minutes at 13,000 rpm. Fifteen micrograms of protein lysate was resolved using 10% SDS-polyacryamide gel electrophoresis (PAGE) and then subjected to western blot anaylsis. Western blots were performed with anti-Stat3, anti-Erk1/2 and anti-hsp27 antibodies specific for phosphor- and total Stat3, Erk and hsp27 proteins. The protein bands were then visualized with the Enhanced Chemiluminescence Plus (ECL Plus) detection system (Amersham). • 6.2.8.1 Inhibition Effect Cucurbitacin B/Cucurbitacin D on Stat3 Activation in HepG2 and HT29 Cells
Cells were incubated either with CuB or CuD (25 ug/ml or the dosage of IC50) for various time intervals (5, 10 or 30 mins, 1 or 4 hours). The Stat3 activation was detected by western blot.

Stat3 = assay: Western blot of Stat3 activation in K562 cells; format: cell-based, human; conditions: 50 μM
Procedure: K562 leukemia cells were serum starved for 18 hours prior to cucurbitacin B treatment. The cells were incubated at a 75-mm culture flask filled with 10 ml growth medium (RPMI with 10% FBS and 1% PS) at the cell density of 1×10^5 cells/ml in the presence or absence of cucurbitacin B for various time intervals. The drug treatment were terminated by centrifugation at 1500 rpm for 5 minutes and the cells were rinsed twice with phosphate-buffered saline and lysed at 4° C. in a lysis buffer containing 50 mM Tris-HCl, pH7.5, […], 5 mM EDTA, 40 mM NaP2O7, 1% Triton X-100, 1 mM dithiothreitol, 200 μM Na3VO4, 100 μM phenylmethysufonyl fluoride, 2 μg/ml leupeptin, 4 μg/ml aprotinin and 0.7 μg/ml pepstatin. The insoluble protein lysate were removed by centrifugation for 10 minutes at 13000 rpm. Fifteen micrograms of protein lysate was resolved using SDS-polyacryamide gel electrophoresis (PAGE) (usually 8%-12% polyacrylamide gel) and then subjected to western blot anaylsis. Western blots were performed with antibodies specific for phosphorylated and total Stat3, c-Raf, Mek, and Erk. The blots were developed with the Enhanced Chemiluminescence Plus (ECL Plus) detection system (Amersham). • 6.1.7 GTPase Pull-Down Assay
15 μg cell lysate of each sample was separated in 8% SDS-PAGE followed by immuno-blotting with anti-Stat3 antibodies to detect the phosphorylated form of Stat3 as well as its total expression level.
Cells were serum starved for 18 hours followed by treated with 50 μM cucurbitacin B for 10 minutes, 30 minutes, 1 hour and 4 hours, respectively. 15 μg cell lysate of each sample was separated in 8% SDS-PAGE followed by immuno-blotting with anti-Stat3 antibodies to detect the phosphorylated form of Stat3 as well as its total expression level.

[2] = system: HL60 cells and U937 cells; assay: Cytocentrifuged, fixed and stained cells (multinucleation); format: cell-based, human; conditions: 1×10^−8 M or 5×10^−8 M, 96 hours
Procedure: HL60 cells, as depicted in FIGS. 13A to 13C, and U937 cells, as depicted in FIGS. 13D to 13F, were cytocentrifuged, fixed and stained. Cells were treated with either 1×10^−8 M (FIGS. 13B, 13C and 13E) or 5×10^−8 M (FIG. 13F) cucurbitacin B for 96 hours, and compared with diluent treated control cells (FIGS. 13A and […]).

CC(=O)OC(C)(C)/C=C/C(=O)[C@](C)(O)C1[C@H](O)C[C@@]2(C)C3CC=C4C(C[C@H](O)C(=O)C4(C)C)[C@]3(C)C(=O)C[C@]12C (some centres unmarked) [cucurbitacin B]
GI50 [1]: 15.6 to 35.3 nM | expression of Erk1/2 (Erk1/2; HT29, 5 minutes of treatment): up-regulated the expression of Erk1/2 significantly | expression of Erk1/2 (Erk1/2; HepG2, 30 minutes of treatment): up-regulated the expression of Erk1/2 significantly | Erk activation (Erk1/2; MCF-7 cells, 5 minutes): significant Erk activation | inhibition on Stat3 activation (Stat3; 10 minutes to 30 minutes): No significant change | inhibition effect on Stat3 activation (Stat3; 1 hour to 4 hours): gradually increased at 1 hours and peak at 4 hours; also recorded: inhibited Stat3 phosphorylation | Stat3 activation (phosphorylated Stat3) (Stat3; 4 hours): significant inhibited | cell morphology (multinucleation) [2]: enlarged, multinucleated cells
